Earlier results as cited in patent US6485765B1, “Lactational performance of dairy cattle” (Church & Dwight Co., Inc., priority 2000, dated 2002).

Test system: heat stressed dairy cows
Details: per every 1% increase in K, potassium carbonate as source of dietary K

## O=C([O-])[O-].[K+].[K+] [potassium carbonate]
  increase of fat-corrected milk: 8.9 lbs/day
